From PMC5826726 (Biochemical pharmacology, 2017)
Read-outs that look alike come from different tables or passages of the source.

Key:
NNMT [1] = target: T1, NNMT (Mus musculus, UniProt O55239); test: Intracellular NNMT reaction product 1-MNA in cultured 3T3-L1 cells; details: 24 h; for 1-MNA levels in adipocytes relative to control: 10 µM; for Intracellular levels of 1-MNA vs untreated controls: 30 µM
T1 sequence (O55239 1-264): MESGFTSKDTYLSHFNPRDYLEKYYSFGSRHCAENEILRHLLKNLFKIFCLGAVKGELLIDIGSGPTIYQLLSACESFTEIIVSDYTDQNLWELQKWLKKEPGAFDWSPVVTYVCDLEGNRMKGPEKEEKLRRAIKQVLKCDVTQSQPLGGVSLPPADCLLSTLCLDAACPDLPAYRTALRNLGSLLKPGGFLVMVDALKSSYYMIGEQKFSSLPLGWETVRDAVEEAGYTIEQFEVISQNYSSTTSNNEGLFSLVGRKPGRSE

[2] = PAMPA; for Flux: 4 h, 400 µM
NNMT [3] = target: T1, NNMT; details: read-out: IC50 (NNMT inhibition); biochemical assay; cited from earlier work
[4] = Parallel artificial membrane permeability assay; details: for Flux: PAMPA passive transport, 400 µM donor in PBS, 4 h, room temperature; for Permeability Classification: PAMPA, BCS, Biopharmaceutics Classification System
recombinant human COMT = target: T2, recombinant human COMT (Homo sapiens, UniProt P21964); test: COMT radiometric activity assay; format: biochemical
T2 sequence (P21964 1-271): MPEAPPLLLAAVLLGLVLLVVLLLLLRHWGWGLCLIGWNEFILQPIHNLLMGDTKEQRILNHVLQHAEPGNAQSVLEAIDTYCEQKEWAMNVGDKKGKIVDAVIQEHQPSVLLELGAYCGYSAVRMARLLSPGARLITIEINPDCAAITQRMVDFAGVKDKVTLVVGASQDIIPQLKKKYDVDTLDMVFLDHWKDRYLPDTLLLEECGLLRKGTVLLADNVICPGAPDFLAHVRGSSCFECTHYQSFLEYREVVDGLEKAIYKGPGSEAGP

recombinant human DNMT1 = recombinant human DNMT1 (Homo sapiens, UniProt P26358); test: DNMT1 radiometric activity assay; format: biochemical; details: for Inhibition of DNMT1: 10 nM to 200 µM (1,8-diMQ) or 600 µM (5-amino-1MQ); for IC50: read-out: IC50, DNA (cytosine-5)-methyltransferase 1, NI: no inhibition, NC: not calculable
recombinant human PRMT3 = recombinant human PRMT3 (Homo sapiens, UniProt O60678); test: PRMT3 radiometric activity assay; format: biochemical; details: for Inhibition of PRMT3: 10 nM to 200 µM (1,8-diMQ) or 600 µM (5-amino-1MQ)
Caco-2 cells [5] = test: Bi-directional permeability assay with Caco-2 cells
Caco-2 cells [6] = details: for Classification (Caco-2 permeability/efflux) / Efflux Ratio (Re): Caco-2; for Mean A➔B Papp / Mean B➔A Papp: Caco-2, pH 7.4
recombinant human NAMPT = recombinant human NAMPT (Homo sapiens, UniProt P43490); test: NAMPT fluorometric activity assay; format: biochemical
DIO C57Bl/6 mice = test: Efficacy in diet-induced obese; format: in vivo
3T3-L1 pre-adipocytes = test: MTT cell viability assay; format: cell-based; details: highest tested concentration (0.1 – 60 µM range, Figure 6C)
[7] = system: differentiated 3T3-L1 adipocytes; test: Intracellular metabolites; details: 24 h
3T3-L1 cells = test: Adipocyte differentiation / lipogenesis by oil red O staining; format: cell-based; details: differentiating 3T3-L1 cells
recombinant human SIRT-1 = target: T3, recombinant human SIRT-1 (Homo sapiens, UniProt Q96EB6); test: SIRT-1 fluorometric activity assay; format: biochemical
T3 sequence (Q96EB6 1-747): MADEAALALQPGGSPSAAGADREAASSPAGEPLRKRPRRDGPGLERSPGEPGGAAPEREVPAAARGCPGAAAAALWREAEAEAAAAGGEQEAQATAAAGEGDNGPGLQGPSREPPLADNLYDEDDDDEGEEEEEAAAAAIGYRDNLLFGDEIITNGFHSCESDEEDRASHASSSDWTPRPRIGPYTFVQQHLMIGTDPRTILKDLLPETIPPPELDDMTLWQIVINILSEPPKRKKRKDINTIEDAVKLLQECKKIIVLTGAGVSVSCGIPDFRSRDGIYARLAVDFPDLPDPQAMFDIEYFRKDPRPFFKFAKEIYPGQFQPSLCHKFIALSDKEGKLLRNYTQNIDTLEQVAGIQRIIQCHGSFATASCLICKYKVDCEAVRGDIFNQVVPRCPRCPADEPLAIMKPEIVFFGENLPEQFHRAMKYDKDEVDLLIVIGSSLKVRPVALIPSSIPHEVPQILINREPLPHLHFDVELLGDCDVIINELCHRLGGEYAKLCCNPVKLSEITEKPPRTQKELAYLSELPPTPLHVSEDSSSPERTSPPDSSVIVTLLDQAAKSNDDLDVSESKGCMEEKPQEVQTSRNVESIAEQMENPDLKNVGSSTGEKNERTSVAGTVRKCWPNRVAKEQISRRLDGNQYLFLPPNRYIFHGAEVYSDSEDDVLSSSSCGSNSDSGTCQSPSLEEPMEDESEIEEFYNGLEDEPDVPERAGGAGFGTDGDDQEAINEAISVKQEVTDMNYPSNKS

[8] = DIO mice, 20 mg/kg SC three times daily, 11 days

Chain of recombinant human NAMPT (P43490 whole entry): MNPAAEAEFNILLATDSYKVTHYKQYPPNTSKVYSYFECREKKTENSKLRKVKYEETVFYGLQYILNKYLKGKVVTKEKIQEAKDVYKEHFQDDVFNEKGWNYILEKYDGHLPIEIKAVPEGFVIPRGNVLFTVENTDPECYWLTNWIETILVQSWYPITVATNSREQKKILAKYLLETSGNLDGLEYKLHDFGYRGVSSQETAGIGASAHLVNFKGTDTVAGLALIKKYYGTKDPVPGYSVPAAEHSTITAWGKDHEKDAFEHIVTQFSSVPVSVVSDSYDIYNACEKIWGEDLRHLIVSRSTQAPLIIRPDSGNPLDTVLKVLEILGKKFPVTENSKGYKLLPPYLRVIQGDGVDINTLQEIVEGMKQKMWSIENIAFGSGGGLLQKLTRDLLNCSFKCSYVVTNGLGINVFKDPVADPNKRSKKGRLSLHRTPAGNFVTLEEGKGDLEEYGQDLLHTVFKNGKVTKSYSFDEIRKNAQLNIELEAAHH
Chain of recombinant human DNMT1 (P26358 whole entry): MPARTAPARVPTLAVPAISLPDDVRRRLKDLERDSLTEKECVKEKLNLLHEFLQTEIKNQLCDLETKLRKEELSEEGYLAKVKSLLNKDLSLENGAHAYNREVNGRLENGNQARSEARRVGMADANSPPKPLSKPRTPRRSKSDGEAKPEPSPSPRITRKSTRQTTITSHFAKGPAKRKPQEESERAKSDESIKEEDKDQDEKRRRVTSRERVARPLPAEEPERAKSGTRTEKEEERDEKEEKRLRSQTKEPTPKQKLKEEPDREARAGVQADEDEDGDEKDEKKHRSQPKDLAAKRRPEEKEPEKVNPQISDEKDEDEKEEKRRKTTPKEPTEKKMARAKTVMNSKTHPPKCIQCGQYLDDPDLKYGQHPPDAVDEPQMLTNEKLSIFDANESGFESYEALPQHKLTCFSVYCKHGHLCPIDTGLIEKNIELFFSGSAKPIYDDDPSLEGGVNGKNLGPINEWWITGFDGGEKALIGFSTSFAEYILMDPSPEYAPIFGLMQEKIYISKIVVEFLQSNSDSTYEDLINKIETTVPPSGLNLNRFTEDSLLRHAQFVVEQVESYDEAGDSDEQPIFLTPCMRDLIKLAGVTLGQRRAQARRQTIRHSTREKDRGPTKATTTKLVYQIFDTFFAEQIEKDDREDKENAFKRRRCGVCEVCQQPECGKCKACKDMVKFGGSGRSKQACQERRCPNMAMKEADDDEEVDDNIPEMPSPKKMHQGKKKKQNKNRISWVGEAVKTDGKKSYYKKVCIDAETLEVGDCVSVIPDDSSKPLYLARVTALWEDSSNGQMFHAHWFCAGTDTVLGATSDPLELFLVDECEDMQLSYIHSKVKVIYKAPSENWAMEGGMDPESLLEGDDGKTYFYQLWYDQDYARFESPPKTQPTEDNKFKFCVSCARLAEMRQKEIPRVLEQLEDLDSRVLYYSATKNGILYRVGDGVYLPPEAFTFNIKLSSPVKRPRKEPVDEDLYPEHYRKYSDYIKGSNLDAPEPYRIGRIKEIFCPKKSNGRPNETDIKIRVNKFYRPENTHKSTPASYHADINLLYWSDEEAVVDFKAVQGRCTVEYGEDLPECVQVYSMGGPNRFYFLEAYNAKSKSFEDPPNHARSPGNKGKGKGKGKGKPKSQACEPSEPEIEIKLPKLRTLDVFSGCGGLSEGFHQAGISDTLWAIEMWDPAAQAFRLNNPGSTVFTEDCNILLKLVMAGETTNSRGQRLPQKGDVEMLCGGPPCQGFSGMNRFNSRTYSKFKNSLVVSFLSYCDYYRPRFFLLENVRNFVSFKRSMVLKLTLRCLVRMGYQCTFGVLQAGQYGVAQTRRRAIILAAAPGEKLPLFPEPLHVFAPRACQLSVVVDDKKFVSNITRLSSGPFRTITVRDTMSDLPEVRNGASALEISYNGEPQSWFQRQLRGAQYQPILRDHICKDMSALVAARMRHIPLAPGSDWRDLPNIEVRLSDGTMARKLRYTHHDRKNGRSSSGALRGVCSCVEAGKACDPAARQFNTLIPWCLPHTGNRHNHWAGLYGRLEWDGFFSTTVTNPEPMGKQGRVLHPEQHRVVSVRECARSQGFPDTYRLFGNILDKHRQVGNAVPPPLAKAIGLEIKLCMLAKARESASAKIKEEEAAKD
Chain of recombinant human PRMT3 (O60678 whole entry): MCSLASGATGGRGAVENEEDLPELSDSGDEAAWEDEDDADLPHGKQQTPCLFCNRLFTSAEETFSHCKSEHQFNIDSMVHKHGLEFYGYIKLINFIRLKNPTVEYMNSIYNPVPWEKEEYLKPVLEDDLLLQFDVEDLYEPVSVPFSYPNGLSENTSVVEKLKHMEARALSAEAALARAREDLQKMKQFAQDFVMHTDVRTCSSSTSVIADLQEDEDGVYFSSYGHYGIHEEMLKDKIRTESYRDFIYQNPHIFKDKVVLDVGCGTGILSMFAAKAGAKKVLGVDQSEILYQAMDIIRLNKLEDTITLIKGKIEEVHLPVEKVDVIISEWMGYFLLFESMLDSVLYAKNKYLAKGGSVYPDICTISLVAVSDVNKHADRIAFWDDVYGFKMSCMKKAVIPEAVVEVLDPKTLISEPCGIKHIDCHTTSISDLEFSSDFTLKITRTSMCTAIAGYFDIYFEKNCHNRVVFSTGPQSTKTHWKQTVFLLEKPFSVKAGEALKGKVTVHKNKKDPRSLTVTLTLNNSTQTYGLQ

Cc1cc(C)[n+](C)c2c(C)cccc12 [1,2,4,8-tetraMQ]
1-MNA levels in adipocytes relative to control (NNMT [1]; differentiated adipocytes): did not significantly decrease | Permeability Classification [2]: Low permeability | Flux [2]: 6.982e-07 cm/s | IC50 (NNMT [3]): 109000 nM

Cc1cccc2ccc[n+](C)c12 [1,8-diMQ]
Flux [4]: 8.637e-07 cm/s | Permeability Classification [4]: Low permeability | Inhibition of COMT (recombinant human COMT; maximal tested concentration 200 µM): 20% | Inhibition of DNMT1 (recombinant human DNMT1): did not inhibit | IC50 (recombinant human DNMT1): > 200 µM | IC50 (NNMT [3]): 1800 nM | Inhibition of PRMT3 (recombinant human PRMT3): did not inhibit | Mean B➔A Papp (Caco-2 cells [5]; Caco-2, 10 µM, 2 h, pH 7.4): 1.78 10^−6 cm/s | Mean A➔B Papp (Caco-2 cells [5]; Caco-2, 10 µM, 2 h, pH 7.4, BLQ: no peak detected in receiver side sample): BLQ | Classification (Caco-2 permeability/efflux) (Caco-2 cells [5]; Caco-2 assay): Low permeability

C[n+]1cccc(C(N)=O)c1 [1-MNA, 1-methylnicotinamide, reference compound]
Flux [4]: 0 cm/s | Permeability Classification [4]: No permeability

C[n+]1cccc2ccccc21 [1-MQ, 1-methylquinolinium]
Permeability Classification [2]: No permeability | IC50 (NNMT [3]): 12100 nM

C[n+]1c(N)c(N)cc2ccccc21 [2,3-diamine-1MQ]
Classification (Caco-2 permeability/efflux) (Caco-2 cells [6]): Moderate permeability (moderate efflux) | Efflux Ratio (Re) (Caco-2 cells [6]): 4.03 | Mean A➔B Papp (Caco-2 cells [6]): 5.27 10^−6 cm/s | Mean B➔A Papp (Caco-2 cells [6]): 21.2 10^−6 cm/s | Permeability Classification [2]: High permeability | Flux [2]: 3.898e-06 cm/s | IC50 (NNMT [3]): 2800 nM

C[n+]1cc(N)cc2cc(F)ccc21 [3-amino-6-fluoro-1MQ]
1-MNA levels in adipocytes relative to control (NNMT [1]; differentiated adipocytes): significantly decreased | Permeability Classification [2]: Moderate permeability | Flux [2]: 1.078e-06 cm/s | IC50 (NNMT [3]): 1200 nM

C[n+]1cccc2c(N)cccc21 [5-amino-1MQ, 5-amino-1-methylquinolinium]
Classification (Caco-2 permeability/efflux) (Caco-2 cells [6]): High permeability (no efflux) | Mean A➔B Papp (Caco-2 cells [6]): 34.2 10^−6 cm/s | Mean B➔A Papp (Caco-2 cells [6]): 45.2 10^−6 cm/s | Relative intracellular 1-MNA level (of level in untreated adipocytes) (NNMT [1]; adipocytes, 10–60 µM, plateau): ~ 40% | 1-MNA levels in adipocytes relative to control (NNMT [1]; differentiated adipocytes): significantly decreased | Intracellular levels of 1-MNA vs untreated controls (NNMT [1]; differentiated adipocytes): significant reduction | Intracellular levels of 1-MNA vs untreated controls (NNMT [1]; pre-adipocytes): significant reduction | EC50 (NNMT [1]; read-out: EC50 (inhibition of NNMT, intracellular 1-MNA), fully differentiated adipocytes, 0.3–60 µM): 2300 nM | Inhibition of COMT (recombinant human COMT; maximal tested concentration 600 µM): 10% | IC50 (recombinant human NAMPT; read-out: IC50, Nicotinamide phosphoribosyl transferase, concentrations above 100 µM could not be tested due to interference in the assay readout signal): > 100 µM | Inhibition of NAMPT (recombinant human NAMPT; up to a tested concentration of 100 µM): did not inhibit | Permeability Classification [2]: High permeability | Flux [2]: 3.015e-06 cm/s | Tolerability in dose escalation study (DIO C57Bl/6 mice; DIO mice (n=2), total dose of 60 mg/kg/day): well tolerated with no observable adverse effects | Decrease in adipocyte size (EWAT histology) vs control DIO mice (DIO C57Bl/6 mice; [8]): > 30% | Total cumulative food intake (DIO C57Bl/6 mice; [8]): 26.2 ± 1.4 g | Decrease in adipocyte volume vs control DIO mice (DIO C57Bl/6 mice; DIO mice, 20 mg/kg SC three times daily, 11 days (data not shown)): > 40% | Plasma total cholesterol lower relative to control DIO mice (DIO C57Bl/6 mice; DIO mice, 20 mg/kg SC three times daily, 11 days, 4 h fast): ~ 30% | 3T3-L1 cell viability vs untreated (3T3-L1 pre-adipocytes): only slightly reduced | Intracellular NAD+ levels vs control ([7]; 10 µM): significant increase | Intracellular SAM levels vs control ([7]; 30 µM): significant increase | Intracellular levels of NA ([7]; 0.3–60 µM): no statistically significant main effect | Intracellular levels of SAH ([7]; 0.3–60 µM): no statistically significant main effect | Increase in NAD+ levels relative to control adipocytes ([7]; 1–60 µM): 1.2–1.6 fold | Inhibition of DNMT1 (recombinant human DNMT1): did not inhibit | IC50 (recombinant human DNMT1): > 200 µM | IC50 (NNMT [3]): 1200 nM | Inhibition of PRMT3 (recombinant human PRMT3): did not inhibit | Efflux Ratio (Re) (Caco-2 cells [5]; Re=Papp (B→A)/Papp (A→B)): 1.33 | Reduction of lipogenesis vs control untreated adipocytes (3T3-L1 cells; 30 µM): 50% | Reduction of lipogenesis vs control untreated adipocytes (3T3-L1 cells; 60 µM): 70% | Inhibition of SIRT1 (recombinant human SIRT-1; 10 nM – 300 µM): did not inhibit | SIRT1 activity (recombinant human SIRT-1; 600 µM): minor reduction

C[n+]1cccc2c(N)c(F)ccc21 [5-amino-6-fluoro-1MQ]
Inhibition of NAMPT (recombinant human NAMPT; concentrations between 30 and 600 µM (data not shown)): no inhibition

C[n+]1cccc2ccc(N)cc21 [7-amino-1MQ]
Classification (Caco-2 permeability/efflux) (Caco-2 cells [6]): High permeability (no efflux) | Efflux Ratio (Re) (Caco-2 cells [6]): 1.52 | Mean A➔B Papp (Caco-2 cells [6]): 26.0 10^−6 cm/s | Mean B➔A Papp (Caco-2 cells [6]): 39.6 10^−6 cm/s | Permeability Classification [2]: High permeability | Flux [2]: 2.055e-06 cm/s | IC50 (NNMT [3]): 2600 nM

c1ccc2ncccc2c1 [Quinoline, reference compound]
Permeability Classification [2]: High permeability

Nc1ncnc2c1ncn2[C@@H]1O[C@H](CSCC[C@H](N)C(=O)O)[C@@H](O)[C@H]1O [SAH, reference compound]
IC50 (recombinant human PRMT3; read-out: IC50, Protein arginine methyltransferase 3, NI: no inhibition, NC: not calculable): 6.6 ± 1.2 µM
